Assay results published in PubChem BioAssay AID328 (DTP/NCI, 2004).
Where “and” joins values, the source holds several entries; their conditions need not be identical. Identical values can stand only once. Toxic doses and inconclusive results are not listed. The calls were made as follows: active = survival T/C of 150% or more; inactive = T/C below 125% in these data.

Tested on: BDF1 mice, P388 leukemia ip, median survival T/C
Assay: NCI In Vivo Anticancer Drug Screen. Data for tumor model P388 Leukemia (intraperitoneal) in B6D2F1 (BDF1) mice
Details: endpoint: median survival time, higher = longer survival
Description: The antitumor activity of compounds was measured in mice bearing transplantable tumors. Survival or tumor size were measured and the results are expressed as the measurement made in the treated group (T) divided by the measurement made in the vehicle treated control group (C). The tumor model used in this assay is P388 Leukemia (intraperitoneal) in B6D2F1 (BDF1) mice

[1] = dose: 100.0 mg/kg/injection, schedule: Q04DX003 (ip), vehicle: saline with Tween-80
[2] = dose: 200.0 mg/kg/injection, schedule: Q04DX003 (ip), vehicle: saline with Tween-80
[3] = dose: 400.0 mg/kg/injection, schedule: Q04DX003 (ip), vehicle: saline with Tween-80
[4] = dose: 25.0 mg/kg/injection, schedule: Q04DX003 (ip), vehicle: saline with Tween-80
[5] = dose: 50.0 mg/kg/injection, schedule: Q01DX009 (ip), vehicle: saline with Tween-80
[6] = dose: 100.0 mg/kg/injection, schedule: Q01DX009 (ip), vehicle: saline with Tween-80
[7] = dose: 200.0 mg/kg/injection, schedule: Q01DX009 (ip), vehicle: saline with Tween-80
[8] = dose: 100.0 mg/kg/injection, schedule: Q04DX003 (ip), vehicle: Klucel (hydroxypropylcellulose) (HPC)
[9] = dose: 200.0 mg/kg/injection, schedule: Q04DX003 (ip), vehicle: Klucel (hydroxypropylcellulose) (HPC)
[10] = dose: 100.0 mg/kg/injection, schedule: Q04DX003 (ip), vehicle: saline sonified
[11] = dose: 400.0 mg/kg/injection, schedule: Q04DX003 (ip), vehicle: Klucel (hydroxypropylcellulose) (HPC)

Measured: T/C

c1ccc2c(c1)OCCOCCOc1ccccc1OCCOCCO2
inactive: dose: 4.69 mg/kg/injection, schedule: Q01DX009 (ip), vehicle: saline with Tween-80 100 % of control | dose: 9.38 mg/kg/injection, schedule: Q01DX009 (ip), vehicle: saline with Tween-80 90 % of control | dose: 18.7 mg/kg/injection, schedule: Q01DX009 (ip), vehicle: saline with Tween-80 90 % of control | [1] 100 % of control | dose: 150.0 mg/kg/injection, schedule: Q01DX009 (ip), vehicle: saline with Tween-80 89 % of control | [2] 100 % of control | [3] 105 % of control

C1=C(c2ccccc2)C(c2ccccc2)C(c2ccccc2)C/C1=N/OCCN1CCCC1 (stereo not drawn)
inactive: dose: 6.0 mg/kg/injection, schedule: Q01DX009 (ip), vehicle: saline with Tween-80 108 % of control | dose: 6.0 mg/kg/injection, schedule: Q04DX003 (ip), vehicle: saline with Tween-80 118 % of control | dose: 8.0 mg/kg/injection, schedule: Q01DX009 (ip), vehicle: saline with Tween-80 100 % of control | dose: 12.0 mg/kg/injection, schedule: Q01DX009 (ip), vehicle: saline with Tween-80 115 % of control | dose: 18.0 mg/kg/injection, schedule: Q01DX009 (ip), vehicle: saline with Tween-80 107 % of control | [4] 100 % of control

CC(/C=N/N=C(N)N)=N\NC(N)=S
inactive: [5] 96 % of control | [6] 116 % of control | [7] 107 % of control

CCCCCCCCCCCCS(=O)(=O)O (tested in a mixture with another compound)
inactive: [8] 95 % of control | [9] 90 % of control

C[C@@H]1O[C@@H](O[C@H]2CC[C@]3(C=O)[C@H]4CC[C@]5(C)[C@@H](c6ccc(=O)oc6)CC[C@]5(O)[C@@H]4CC[C@]3(O)C2)[C@H](O)[C@H](O)[C@H]1O[C@@H]1O[C@H](CO)[C@@H](O)[C@H](O)[C@H]1O
inactive: dose: 0.6 mg/kg/injection, schedule: Q01DX010 (ip), vehicle: carboxymethylcellulose (CMC) 95 % of control | dose: 1.2 mg/kg/injection, schedule: Q01DX010 (ip), vehicle: carboxymethylcellulose (CMC) 104 % of control | dose: 2.5 mg/kg/injection, schedule: Q01DX010 (ip), vehicle: carboxymethylcellulose (CMC) 95 % of control and 120 % of control | dose: 5.0 mg/kg/injection, schedule: Q01DX010 (ip), vehicle: carboxymethylcellulose (CMC) 100 % of control

Cn1c2ccccc2c(=O)c2ccc(Cl)cc21
inactive: [1] 105 % of control | [2] 105 % of control | [3] 100 % of control

CC(=O)Nc1ncnc2n[nH]c(C#N)c12
inactive: dose: 12.5 mg/kg/injection, schedule: Q04DX003 (ip), vehicle: saline with Tween-80 117 % of control | [4] 95 % of control | dose: 50.0 mg/kg/injection, schedule: Q04DX003 (ip), vehicle: saline with Tween-80 104 % of control | [1] 106 % of control

CCC(C)Sc1nc(N)nc2c1ncn2C1OC(CO)C(O)C1O (stereo not drawn)
inactive: [1] 91 % of control and 109 % of control | [2] 108 % of control and 118 % of control

CC1CCC2(OC1)OC1CC3C4CCC5CC(O)C(O)CC5(C)C4CCC3(C)C1C2C (stereo not drawn)
inactive: dose: 100.0 mg/kg/injection, schedule: Q04DX003 (ip), vehicle: other 91 % of control | dose: 200.0 mg/kg/injection, schedule: Q04DX003 (ip), vehicle: other 87 % of control | dose: 400.0 mg/kg/injection, schedule: Q04DX003 (ip), vehicle: other 87 % of control

CC(=O)Nc1ccccc1C1SCCCS1
inactive: dose: 50.0 mg/kg/injection, schedule: Q04DX002 (ip), vehicle: saline with Tween-80 102 % of control | dose: 100.0 mg/kg/injection, schedule: Q04DX002 (ip), vehicle: saline with Tween-80 98 % of control | dose: 200.0 mg/kg/injection, schedule: Q04DX002 (ip), vehicle: saline with Tween-80 106 % of control

C=C1C2CCC3(C)C(c4ccoc4)OC(=O)CC13OC1CC(=O)C(C)(C)C(CC(=O)OC)C12C (stereo not drawn)
inactive: dose: 2.0 mg/kg/injection, schedule: Q01DX009 (ip), vehicle: Klucel (hydroxypropylcellulose) (HPC) 100 % of control | dose: 4.0 mg/kg/injection, schedule: Q01DX009 (ip), vehicle: Klucel (hydroxypropylcellulose) (HPC) 100 % of control | dose: 8.0 mg/kg/injection, schedule: Q01DX009 (ip), vehicle: Klucel (hydroxypropylcellulose) (HPC) 96 % of control | dose: 16.0 mg/kg/injection, schedule: Q01DX009 (ip), vehicle: Klucel (hydroxypropylcellulose) (HPC) 100 % of control | dose: 32.0 mg/kg/injection, schedule: Q01DX009 (ip), vehicle: Klucel (hydroxypropylcellulose) (HPC) 89 % of control

O=CC12Cc3ccccc3C1CCC1(C2)OCCO1 (stereo not drawn)
inactive: [10] 90 % of control | dose: 200.0 mg/kg/injection, schedule: Q04DX003 (ip), vehicle: saline sonified 110 % of control | dose: 400.0 mg/kg/injection, schedule: Q04DX003 (ip), vehicle: saline sonified 110 % of control

CCCCCCCCCC(=O)CCCC
inactive: [1] 100 % of control | [2] 91 % of control | [3] 108 % of control

COc1ccc(-n2nc3c(c2-c2cccnc2)CCc2ccccc2-3)cc1
inactive: [8] 103 % of control | [9] 109 % of control | [11] 105 % of control

O=c1oc2cc(O)ccc2c2c1CCCC2
inactive: [8] 95 % of control | [9] 95 % of control | [11] 100 % of control

Cc1ccc(NC(=O)OCCSC(=O)COc2ccc(Cl)cc2Cl)cc1
inactive: [1] 100 % of control | [2] 100 % of control | [3] 104 % of control

CC(=O)Nc1cc(C)c2ccc(Cl)nc2n1
inactive: dose: 100.0 mg/kg/injection, schedule: Q04DX003 (ip), vehicle: saline 97 % of control | dose: 200.0 mg/kg/injection, schedule: Q04DX003 (ip), vehicle: saline 92 % of control | dose: 400.0 mg/kg/injection, schedule: Q04DX003 (ip), vehicle: saline 91 % of control

Cn1c(=O)c2c(ncn2C)n(C)c1=O
inactive: dose: 50.0 mg/kg/injection, schedule: Q01DX010 (ip), vehicle: saline 100 % of control | dose: 100.0 mg/kg/injection, schedule: Q01DX010 (ip), vehicle: saline 100 % of control | dose: 200.0 mg/kg/injection, schedule: Q01DX010 (ip), vehicle: saline 104 % of control

Cc1ccc(S(=O)C(C)C(Cl)c2ccccc2)cc1 (stereo not drawn)
inactive: [5] 98 % of control | [6] 106 % of control | [7] 100 % of control

Nc1cc(Cl)c2cccnc2c1O
inactive: dose: 12.5 mg/kg/injection, schedule: Q01DX009 (ip), vehicle: saline 111 % of control and 115 % of control | dose: 22.0 mg/kg/injection, schedule: Q01DX009 (ip), vehicle: saline 118 % of control | dose: 25.0 mg/kg/injection, schedule: Q01DX009 (ip), vehicle: saline 104 % of control and 117 % of control | dose: 44.0 mg/kg/injection, schedule: Q04DX003 (ip), vehicle: saline sonified 100 % of control | dose: 50.0 mg/kg/injection, schedule: Q04DX003 (ip), vehicle: saline sonified 100 % of control | dose: 66.0 mg/kg/injection, schedule: Q04DX003 (ip), vehicle: saline sonified 118 % of control | [10] 113 % of control

[NH-]C(CO)C(=O)O.[NH-]C(CO)C(=O)O.[Pd+2] (stereo not drawn)
inactive: dose: 12.5 mg/kg/injection, schedule: Q01DX009 (ip), vehicle: water 106 % of control

Cc1ccc(N=NNc2ccc(C)cc2)cc1
inactive: dose: 100.0 mg/kg/injection, schedule: Q01DX001 (ip), vehicle: Klucel (hydroxypropylcellulose) (HPC) 104 % of control | dose: 200.0 mg/kg/injection, schedule: Q01DX001 (ip), vehicle: Klucel (hydroxypropylcellulose) (HPC) 104 % of control | dose: 400.0 mg/kg/injection, schedule: Q01DX001 (ip), vehicle: Klucel (hydroxypropylcellulose) (HPC) 112 % of control

C1=CC2CC1C1CSCC21 (stereo not drawn)
inactive: dose: 0.03 mg/kg/injection, schedule: Q04DX003 (ip), vehicle: saline 100 % of control | dose: 0.06 mg/kg/injection, schedule: Q04DX003 (ip), vehicle: saline 91 % of control | dose: 0.13 mg/kg/injection, schedule: Q04DX003 (ip), vehicle: saline 95 % of control | dose: 0.19 mg/kg/injection, schedule: Q01DX009 (ip), vehicle: saline 95 % of control | dose: 0.27 mg/kg/injection, schedule: Q04DX003 (ip), vehicle: saline 100 % of control | dose: 0.39 mg/kg/injection, schedule: Q01DX009 (ip), vehicle: saline 104 % of control
